# Assay results reported in paper PMC9297976 (Journal of Applied Toxicology, 2021).
# How the values were obtained:
# [1] = target: T1, medaka ARβ (mArβ) (Oryzias latipes, UniProt D1MV73); assay: Medaka ARβ reporter gene assay, agonist assay; assay type: cell-based, Japanese medaka (Oryzias latipes); conditions: MAC = 1.0 × 10^−5 M
# T1 sequence (D1MV73 1-744): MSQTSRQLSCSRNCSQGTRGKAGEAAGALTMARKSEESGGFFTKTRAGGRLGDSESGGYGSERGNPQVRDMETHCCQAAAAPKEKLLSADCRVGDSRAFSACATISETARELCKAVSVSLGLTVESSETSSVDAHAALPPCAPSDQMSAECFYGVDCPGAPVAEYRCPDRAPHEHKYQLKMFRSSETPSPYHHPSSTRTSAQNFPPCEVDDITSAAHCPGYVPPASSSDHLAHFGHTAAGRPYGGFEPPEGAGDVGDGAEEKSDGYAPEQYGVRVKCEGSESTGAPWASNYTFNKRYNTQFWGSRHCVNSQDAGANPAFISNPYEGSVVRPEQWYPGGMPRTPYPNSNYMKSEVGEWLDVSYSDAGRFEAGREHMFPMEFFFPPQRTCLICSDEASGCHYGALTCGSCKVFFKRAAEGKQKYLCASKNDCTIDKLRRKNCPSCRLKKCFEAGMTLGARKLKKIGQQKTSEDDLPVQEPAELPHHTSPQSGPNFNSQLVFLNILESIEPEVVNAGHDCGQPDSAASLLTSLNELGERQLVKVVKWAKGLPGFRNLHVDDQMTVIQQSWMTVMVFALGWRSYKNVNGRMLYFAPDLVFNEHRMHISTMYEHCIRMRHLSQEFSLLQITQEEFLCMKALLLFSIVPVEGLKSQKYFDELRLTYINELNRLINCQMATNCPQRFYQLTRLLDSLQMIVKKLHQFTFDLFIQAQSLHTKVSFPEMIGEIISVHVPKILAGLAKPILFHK
# [2] = target: T2, medaka Esr1 (mEsr1) (Oryzias latipes, UniProt P50241); assay: cell-based; design: species or system Japanese medaka (Oryzias latipes)
# T2 sequence (P50241 1-620): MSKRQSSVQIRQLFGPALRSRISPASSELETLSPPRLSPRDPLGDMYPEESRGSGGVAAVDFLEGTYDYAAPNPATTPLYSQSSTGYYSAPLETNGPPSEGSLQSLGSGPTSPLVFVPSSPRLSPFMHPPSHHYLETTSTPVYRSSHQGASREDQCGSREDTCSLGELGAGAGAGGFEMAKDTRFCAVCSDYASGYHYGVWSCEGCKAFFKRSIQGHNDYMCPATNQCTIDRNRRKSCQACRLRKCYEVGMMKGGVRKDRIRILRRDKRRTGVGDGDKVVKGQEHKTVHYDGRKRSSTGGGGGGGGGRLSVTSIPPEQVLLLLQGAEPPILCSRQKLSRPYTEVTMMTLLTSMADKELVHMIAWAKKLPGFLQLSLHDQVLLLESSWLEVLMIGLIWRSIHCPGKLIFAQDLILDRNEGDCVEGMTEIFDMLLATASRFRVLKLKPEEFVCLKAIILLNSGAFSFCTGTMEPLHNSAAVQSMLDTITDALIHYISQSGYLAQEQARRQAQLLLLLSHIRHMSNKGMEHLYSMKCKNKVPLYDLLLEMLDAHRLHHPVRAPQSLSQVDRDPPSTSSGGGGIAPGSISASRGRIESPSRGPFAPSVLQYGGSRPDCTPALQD
# [3] = target: T2, medaka Esr1 (mEsr1); assay: Medaka Esr1 reporter gene assay, antagonist assay; assay type: cell-based, Japanese medaka (Oryzias latipes); conditions: E2 spiked at 1.0 nM (B); MAC = 1.0 × 10^−5 M
# [4] = tested on: Japanese medaka (Oryzias latipes); assay: Fish Short‐Term Reproduction Assay; assay type: in vivo; conditions: for GSI Female / GSI Male / HSI Female / HSI Male / Length Female / Length Male / Weight Female / Weight Male: completion of exposure
# [5] = target: T1, medaka ARβ (mArβ); assay: Medaka ARβ reporter gene assay, antagonist assay; assay type: cell-based, Japanese medaka (Oryzias latipes)
# [6] = 100 μg/L measured, 21 d, sig. ↓ vs control
# [7] = measured concentration 5.69 μg/L
# [8] = measured concentration 28.8 μg/L
# [9] = measured concentration 100 μg/L
smiles,measurement,setting,value
"CCC(CC)Nc1c([N+](=O)[O-])cc(C)c(C)c1[N+](=O)[O-] [PDM, Pendimethalin]",Agonistic activity,[1],NE (MAC = 1.0 × 10^−5 M)
same,EC50,[2],3.3 µM
same,In vitro positive: Esr,[2]; mode of action in which EC50 or PC10 was obtained in RGA,Esr
same,Antagonistic activity,[3],NE (MAC = 1.0 × 10^−5 M)^(B)
same,Fertility rate,"[4]; 5.69 μg/L measured, 21 d",93 ± 0.9%
same,"Hepatic VTG, female","[4]; 5.69 μg/L measured, 21 d",649 ± 200 ng/mg‐liver
same,"Hepatic VTG, male","[4]; 5.69 μg/L measured, 21 d",0.5 ± 0.0 ng/mg‐liver
same,Mortality,"[4]; 5.69 μg/L measured, 21 d",0.0%
same,"Mortality, number of dead fish","[4]; 5.69 μg/L measured, 21 d",0
same,Number of fertilized eggs (per female per day),"[4]; 5.69 μg/L measured, 21 d",19 ± 3.1
same,Number of total eggs (per female per day),"[4]; 5.69 μg/L measured, 21 d",21 ± 3.4
same,SSC female (joint plates with papillary processes),"[4]; 5.69 μg/L measured, 21 d",0 ± 0
same,SSC male (joint plates with papillary processes),"[4]; 5.69 μg/L measured, 21 d",85 ± 11
same,Fertility rate,"[4]; 28.8 μg/L measured, 21 d",88 ± 4.9%
same,"Hepatic VTG, female","[4]; 28.8 μg/L measured, 21 d",933 ± 692 ng/mg‐liver
same,"Hepatic VTG, male","[4]; 28.8 μg/L measured, 21 d",5.7 ± 6.6 ng/mg‐liver
same,Mortality,"[4]; 28.8 μg/L measured, 21 d",4.2%
same,"Mortality, number of dead fish","[4]; 28.8 μg/L measured, 21 d",1
same,Number of fertilized eggs (per female per day),"[4]; 28.8 μg/L measured, 21 d",18 ± 3.6
same,Number of total eggs (per female per day),"[4]; 28.8 μg/L measured, 21 d",20 ± 3.9
same,SSC female (joint plates with papillary processes),"[4]; 28.8 μg/L measured, 21 d",0 ± 0
same,SSC male (joint plates with papillary processes),"[4]; 28.8 μg/L measured, 21 d",80 ± 8.2
same,"Hepatic VTG, female","[4]; 100 μg/L measured, 21 d",813 ± 157 ng/mg‐liver
same,Mortality,"[4]; 100 μg/L measured, 21 d",8.3%
same,"Mortality, number of dead fish","[4]; 100 μg/L measured, 21 d",2
same,Number of total eggs (per female per day),"[4]; 100 μg/L measured, 21 d",19 ± 2.1
same,SSC female (joint plates with papillary processes),"[4]; 100 μg/L measured, 21 d",0 ± 0
same,SSC male (joint plates with papillary processes),"[4]; 100 μg/L measured, 21 d",80 ± 13
same,"Hepatic VTG, male","[4]; 100 μg/L measured, 21 d, sig. ↑ vs control",774 ± 290 ng/mg‐liver
same,Fertility rate,[4]; [6],62 ± 11%
same,Number of fertilized eggs (per female per day),[4]; [6],12 ± 2.3
same,"LOEC, elevated hepatic VTG in males",[4]; 21 d,100 µg/L
same,LOECREPRO,[4]; LOEC on reproduction (fecundity and/or fertility),100 µg/L
same,minimal effective concentration,"[4]; Oryzias latipes, 504 h, read-out: LOECmVTG",0.1 µg/mL
same,Fertility rate (in words),[4]; at concentrations that did not affect number of total eggs,significant decrease
same,LOECREPRO (reduction in fecundity or fertility),[4]; concentrations without overt toxicity,100 µg/L
same,LOECTOX,[4]; lowest observed effect concentration on mortality,ND (>100) μg/L
same,GSI Female,[4]; [7],10.7 ± 0.8%
same,GSI Male,[4]; [7],0.64 ± 0.11%
same,HSI Female,[4]; [7],4.5 ± 0.70%
same,HSI Male,[4]; [7],2.7 ± 0.16%
same,Length Female,[4]; [7],32.4 ± 0.7 mm
same,Length Male,[4]; [7],31.9 ± 0.7 mm
same,Weight Female,[4]; [7],427 ± 25 mg
same,Weight Male,[4]; [7],366 ± 25 mg
same,GSI Female,[4]; [8],11.3 ± 0.8%
same,GSI Male,[4]; [8],0.55 ± 0.11%
same,HSI Male,[4]; [8],2.7 ± 0.28%
same,Length Female,[4]; [8],33.1 ± 0.9 mm
same,Length Male,[4]; [8],32.2 ± 0.2 mm
same,Weight Female,[4]; [8],455 ± 46 mg
same,Weight Male,[4]; [8],393 ± 20 mg
same,GSI Female,[4]; [9],9.7 ± 0.3%
same,GSI Male,[4]; [9],0.60 ± 0.20%
same,HSI Female,[4]; [9],4.4 ± 1.04%
same,HSI Male,[4]; [9],2.9 ± 0.45%
same,Length Female,[4]; [9],31.4 ± 0.8 mm
same,Length Male,[4]; [9],31.9 ± 0.7 mm
same,Weight Female,[4]; [9],423 ± 30 mg
same,Weight Male,[4]; [9],389 ± 28 mg
same,IC50,"[5]; Antagonistic activity IC50, 11‐KT spiked at 50 nM (D)",3.1 µM
same,In vitro positive: aAr,[5]; mode of action in which IC50 or IC30 was obtained in RGA,aAr
same,Antagonistic activity on mArβ (in words),[5]; transcriptional activity on mArβ by 11KT,inhibitory potency
